Data taken from US20250281568A1, “METHOD FOR TREATING OR PREVENTING DRUG-INDUCED LIVER INJURY WITH PEPTIDE COMPOSITION” (Tunghai University, priority 2024, published 2025).

Tests used:
Assay type in all cases: in vivo
BALB/cByJNarl mice [1] = assay: Analysis of stained liver tissue sections (H&E, immunohistochemical staining) of mice injected with acetaminophen; conditions: 50 mg/kg/day oral, 7 days
Experimental: (§1) After being raised under the corresponding conditions for 7 days, each group of mice was weighed and then fasted for 12 hours. After fasting, each group of mice was intraperitoneally injected with an acetaminophen solution at 300 mg/kg. 24 hours after the injection, the mice were sacrificed, and blood was collected from the mice.
The liver tissue collected from each group of mice in example 2 was sectioned and then subjected to immunohistochemical staining with hematoxylin and eosin (H&E) and with different antibodies.

BALB/cByJNarl mice [2] = assay: Biochemical analysis of blood (serum) of mice injected with acetaminophen; conditions: 50 mg/kg/day oral, 7 days
Experimental: as §1
The blood collected from each group of mice in example 2 was analyzed with a commercial assay kit in order to determine the concentrations of aspartate aminotransferase (AST), alanine aminotransferase (ALT), alkaline phosphatase (ALP), C-reactive protein (CRP), interleukin-6 (IL-6), and monocyte chemoattractant protein-1 (MCP-1) in the serum of each group of mice.

BALB/cByJNarl mice [3] = assay: Analysis of proteins in the liver of mice injected with acetaminophen; conditions: 50 mg/kg/day oral, 7 days; vs control group
Experimental: as §1
Livers were collected from each group of mice in example 2 and were analyzed in order to determine the concentrations of superoxidase dismutase (SOD), glutathione peroxidase (GPx), and glutathione (GSH) in the livers.

[4] = Animal test: body weight and organ weights of mice; conditions: 50 mg/kg/day oral, 7 days, then acetaminophen 300 mg/kg i.p.
Experimental: as §1

[5] = immunohistochemical staining, vs control group

NCCC(=O)N[C@@H](Cc1cnc[nH]1)C(=O)O [carnosine]
expression amount of 4-hydroxy-2-nonenal (4-HNE) in the liver (BALB/cByJNarl mice [1]; [5]): significantly less | expression amount of GSH in the liver (BALB/cByJNarl mice [1]; [5]): significantly greater | expression amount of Kelch-like ECH-associated protein 1 (Keap1) in the liver (BALB/cByJNarl mice [1]; [5]): significantly less | expression amount of heme oxygenase 1 (HO-1) in the liver (BALB/cByJNarl mice [1]; [5]): significantly greater | expression amount of nuclear factor erythroid 2-related factor 2 (Nrf2) in the liver (BALB/cByJNarl mice [1]; [5]): significantly greater | liver cell damage (H&E-stained liver section) (BALB/cByJNarl mice [1]; vs blank group): significantly damaged in comparison with those of the blank group | liver cell damage (H&E-stained liver section) (BALB/cByJNarl mice [1]; vs control group): damaged to a smaller extent than those of the control group | serum CRP concentration (BALB/cByJNarl mice [2]; vs blank group): not significantly different from that of the blank group | serum ALP concentration (BALB/cByJNarl mice [2]; vs control group): significantly lower than those of the control group | serum ALT concentration (BALB/cByJNarl mice [2]; vs control group): significantly lower than those of the control group | serum AST concentration (BALB/cByJNarl mice [2]; vs control group): significantly lower than those of the control group | serum CRP concentration (BALB/cByJNarl mice [2]; vs control group): significantly lower than that of the control group | serum IL-6 concentration (BALB/cByJNarl mice [2]; vs control group): lower than that of the control group | serum MCP-1 concentration (BALB/cByJNarl mice [2]; vs control group): significantly lower than that of the control group | liver GPx concentration (BALB/cByJNarl mice [3]): significantly higher than those of the control group | liver GSH concentration (BALB/cByJNarl mice [3]): significantly higher than those of the control group | liver SOD concentration (BALB/cByJNarl mice [3]): significantly higher than those of the control group | weight of heart ([4]; 24 hours, among the groups): no significant difference in the weight of heart | liver weight ([4]; vs control group): liver weight of the control group of mice was significantly higher than those of the other groups
